Reference: PubChem BioAssay AID2060892 (Molecular Pharmacology Branch, DTP, NCI, 2025)

Test system: HOP-62 complex spheroids with HUVEC/MSC, viability
Assay: Anticancer human tumor HOP-62 cell line growth inhibition [RAS];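 note: spheroids exposed to agents for seven days before readout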;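 for viability, T/C: 100% = DMSO vehicle control viability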
Conditions: for IC50: curve of first compound; for viability, T/C: stronger effect = lower value; active = viability on the fitted dose curve at most 10% of control; inactive = the rest
Method in brief: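 Agents were tested in combination matrices in half-log decrements from a top concentration at or near clinical Cmax (10 microM if undetermined). Targets were multi-cell spheroids of tumour lines plus HUVEC and MSC stromal cells.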

C=CC(=O)N1CCN(c2nc(OCC3CCCN3C)nc3c(F)c(-c4nc(N)cc(C)c4C(F)(F)F)c(Cl)cc23)C(C)C1 (centres undefined) + CCn1c(-c2cccnc2C(C)OC)c2c3cc(ccc31)N1CCOC(CC(NC(=O)C(C(C)C)N(C)C(=O)C3(F)CCN(C(=O)C#CC(C)(C)N(C)C)CC3)C(=O)N3CCCC(N3)C(=O)OCC(C)(C)C2)C1
inactive: viability, T/C (second compound 0.000949 µM, first compound 0.00316 µM) 103% | viability, T/C (second compound 0.000949 µM, first compound 0.01 µM) 101% | viability, T/C (second compound 0.000949 µM, first compound 0.0316 µM) 69.5% | viability, T/C (second compound 0.000949 µM, first compound 0.1 µM) 88.2% | viability, T/C (second compound 0.000949 µM, first compound 0.316 µM) 95.6% | viability, T/C (second compound 0.000949 µM, first compound 1 µM) 71.1% | viability, T/C (second compound 0.003 µM, first compound 0.00316 µM) 88.7% | viability, T/C (second compound 0.003 µM, first compound 0.01 µM) 87.3% | viability, T/C (second compound 0.003 µM, first compound 0.0316 µM) 76.8% | viability, T/C (second compound 0.003 µM, first compound 0.1 µM) 92.5% | viability, T/C (second compound 0.003 µM, first compound 0.316 µM) 84.9% | viability, T/C (second compound 0.003 µM, first compound 1 µM) 72.9% | viability, T/C (second compound 0.00949 µM, first compound 0.00316 µM) 90.4% | viability, T/C (second compound 0.00949 µM, first compound 0.01 µM) 87.6% | viability, T/C (second compound 0.00949 µM, first compound 0.0316 µM) 85.3% | viability, T/C (second compound 0.00949 µM, first compound 0.1 µM) 89.8% | viability, T/C (second compound 0.00949 µM, first compound 0.316 µM) 91% | viability, T/C (second compound 0.00949 µM, first compound 1 µM) 74.7% | viability, T/C (second compound 0.03 µM, first compound 0.00316 µM) 91.3% | viability, T/C (second compound 0.03 µM, first compound 0.01 µM) 92% | viability, T/C (second compound 0.03 µM, first compound 0.0316 µM) 87.7% | viability, T/C (second compound 0.03 µM, first compound 0.1 µM) 94.9% | viability, T/C (second compound 0.03 µM, first compound 0.316 µM) 79.1% | viability, T/C (second compound 0.03 µM, first compound 1 µM) 84.3% | viability, T/C (second compound 0.0949 µM, first compound 0.00316 µM) 86.5% | viability, T/C (second compound 0.0949 µM, first compound 0.01 µM) 91.2% | viability, T/C (second compound 0.0949 µM, first compound 0.0316 µM) 83.3% | viability, T/C (second compound 0.0949 µM, first compound 0.1 µM) 92.7% | viability, T/C (second compound 0.0949 µM, first compound 0.316 µM) 71.8% | viability, T/C (second compound 0.0949 µM, first compound 1 µM) 87.6% | viability, T/C (second compound 0.3 µM, first compound 0.00316 µM) 95.4% | viability, T/C (second compound 0.3 µM, first compound 0.01 µM) 75.1% | viability, T/C (second compound 0.3 µM, first compound 0.0316 µM) 73% | viability, T/C (second compound 0.3 µM, first compound 0.1 µM) 70.2% | viability, T/C (second compound 0.3 µM, first compound 0.316 µM) 74.6% | viability, T/C (second compound 0.3 µM, first compound 1 µM) 79.4%
> 1 µM: IC50 (second compound 0.000949 µM) | IC50 (second compound 0.003 µM) | IC50 (second compound 0.00949 µM) | IC50 (second compound 0.03 µM) | IC50 (second compound 0.0949 µM) | IC50 (second compound 0.3 µM)

CC1(C)CCC(Nc2ncc(C(F)(F)F)c(-c3c[nH]c4c(P(C)(C)=O)c(C#N)ccc34)n2)CN1 (centres undefined) + CCn1c(-c2cccnc2C(C)OC)c2c3cc(ccc31)N1CCOC(CC(NC(=O)C(C(C)C)N(C)C(=O)C3(F)CCN(C(=O)C#CC(C)(C)N(C)C)CC3)C(=O)N3CCCC(N3)C(=O)OCC(C)(C)C2)C1
0.0312 µM: IC50 (second compound 0.0949 µM)
> 0.3 µM: IC50 (second compound 0.000949 µM) | IC50 (second compound 0.003 µM) | IC50 (second compound 0.00949 µM)
0.202 µM: IC50 (second compound 0.03 µM)
0.00299 µM: IC50 (second compound 0.3 µM)
inactive: viability, T/C (second compound 0.000949 µM, first compound 0.000949 µM) 108% | viability, T/C (second compound 0.000949 µM, first compound 0.003 µM) 94.5% | viability, T/C (second compound 0.000949 µM, first compound 0.00949 µM) 61.2% | viability, T/C (second compound 0.000949 µM, first compound 0.03 µM) 68.8% | viability, T/C (second compound 0.000949 µM, first compound 0.0949 µM) 80.4% | viability, T/C (second compound 0.000949 µM, first compound 0.3 µM) 44.4% | viability, T/C (second compound 0.003 µM, first compound 0.000949 µM) 105% | viability, T/C (second compound 0.003 µM, first compound 0.003 µM) 78.5% | viability, T/C (second compound 0.003 µM, first compound 0.00949 µM) 62.7% | viability, T/C (second compound 0.003 µM, first compound 0.03 µM) 73.5% | viability, T/C (second compound 0.003 µM, first compound 0.0949 µM) 62% | viability, T/C (second compound 0.003 µM, first compound 0.3 µM) 49.6% | viability, T/C (second compound 0.00949 µM, first compound 0.000949 µM) 97.3% | viability, T/C (second compound 0.00949 µM, first compound 0.003 µM) 60.6% | viability, T/C (second compound 0.00949 µM, first compound 0.00949 µM) 65.2% | viability, T/C (second compound 0.00949 µM, first compound 0.03 µM) 66.7% | viability, T/C (second compound 0.00949 µM, first compound 0.0949 µM) 61.6% | viability, T/C (second compound 0.00949 µM, first compound 0.3 µM) 52.5% | viability, T/C (second compound 0.03 µM, first compound 0.000949 µM) 86.8% | viability, T/C (second compound 0.03 µM, first compound 0.003 µM) 72.3% | viability, T/C (second compound 0.03 µM, first compound 0.00949 µM) 58.2% | viability, T/C (second compound 0.03 µM, first compound 0.03 µM) 54.4% | viability, T/C (second compound 0.03 µM, first compound 0.0949 µM) 42.8% | viability, T/C (second compound 0.03 µM, first compound 0.3 µM) 55.6% | viability, T/C (second compound 0.0949 µM, first compound 0.000949 µM) 83.3% | viability, T/C (second compound 0.0949 µM, first compound 0.003 µM) 58.5% | viability, T/C (second compound 0.0949 µM, first compound 0.00949 µM) 59.7% | viability, T/C (second compound 0.0949 µM, first compound 0.03 µM) 55.8% | viability, T/C (second compound 0.0949 µM, first compound 0.0949 µM) 33.1% | viability, T/C (second compound 0.0949 µM, first compound 0.3 µM) 55.1% | viability, T/C (second compound 0.3 µM, first compound 0.000949 µM) 73.3% | viability, T/C (second compound 0.3 µM, first compound 0.003 µM) 49.8% | viability, T/C (second compound 0.3 µM, first compound 0.00949 µM) 46.1% | viability, T/C (second compound 0.3 µM, first compound 0.03 µM) 40.6% | viability, T/C (second compound 0.3 µM, first compound 0.0949 µM) 40.1% | viability, T/C (second compound 0.3 µM, first compound 0.3 µM) 49.2%
